# From PMC10671697, “Drug-Induced Conformational Dynamics of P-Glycoprotein Underlies the Transport of Camptothecin Analogs” (International Journal of Molecular Sciences, 2023)
# Values joined by “and” are separate entries in the source; they are usually repeats but may differ in a detail not shown here. Identical values can stand only once. Like-named read-outs stand apart in the source and are kept apart here.
# Key:
# [1] = molecular target: T1, wild-type mouse Pgp (MDR3) (Mus musculus, UniProt P21447)
# Procedure: Acrylamide quenching of protein fluorescence was used to probe drug-induced Pgp conformational changes indirectly. For this assay, a solution containing 1 µM of Pgp reconstituted into liposomes was titrated with acrylamide. The preparation was carried out in Chifflet buffer (pH 7.4) supplemented with 2 mM DTT. The assay was performed both in the presence and absence of ligand(s). […] The fluorescence intensities were corrected for dilution, background, and inner filter effects using Equation (3). A Stern–Volmer plot of Fo(corrected)/F(corrected) versus the concentration of acrylamide added was generated. The slope of the curve, an indicator of the degree of quenching, is related to the Stern–Volmer’s constant (Ksv) by Equation (4). (4) Focorrected/Fcorrected=1+KsvQ where [Q] is the concentration of the quencher, acrylamide.
# [2] = second-line chemotherapy, versus TPT; cited from earlier work
# [3] = molecular target: T1, wild-type mouse Pgp (MDR3); remark: listed apart in the source
# Procedure: Atomic force microscopy (AFM) has been adapted for analyzing protein dynamics and structure, which has enabled the determination of conformational changes induced by ligands. In this study, Pgp reconstituted into liposomes was diluted in imaging buffer (20 mM HEPES, 100 mM NaCl, and 5 mM MgCl2; pH 7.4) to 100 nM. About 90 µL droplets of the diluted Pgp solution were deposited on cleaned […] (Corning, Corning, NY, USA), followed by 30 min of incubation at 25 °C. This step caused the proteoliposomes to rupture, forming a planar lipid bilayer on top of the mica surface. The samples were rinsed at least five times using the buffer exchange technique, wherein 90 µL of buffer was utilized. Next, AFM imaging of the EC-side and C-side domains of Pgp protrusions above the lipid bilayer was performed as previously described. For each of the selected CPTs used in this study, AFM imaging of the ligand-free Pgp (apoPgp) was performed first, then ligand was added, and imaging was repeated in nominally the same area. […] Only membrane-external protrusions that could be positively assigned as either EC or C-side domain features of Pgp were analyzed. All the AFM images were obtained in an imaging buffer at about 30 °C in tapping mode with biolever mini tips (BL-AC40TS, Olympus, Tokyo, Japan) installed on a commercial instrument (Asylum Research Cypher, Santa Barbara, CA, USA). The tip-sample force was kept below 100 pN to minimize the probability of protein distortion. The AFM images were analyzed with custom software written in Igor Pro 7 (Wavemetrics, Portland, OR, USA), as described previously. Kernel density estimation with Epanechnikov kernels in Igor Pro 7 software was used to generate smoothed histograms for further analysis. The histograms were fitted with a summation of Gaussian distributions. The Bayesian information criterion was used to select the best model after fitting with 1–5 Gaussian distributions as described previously (see Supporting Information).
# [4] = molecular target: T1, wild-type mouse Pgp (MDR3); remark: listed apart in the source
# Description: For a molecule that binds to the receptor, only the protons within a distance of 5 Å from the saturated protein receive noticeable saturation transfer. The saturation transferred from the receptor to the bound ligands can be detected upon dissociation as a saturation transfer difference (STD). The observed degree of saturation transferred inversely correlates with the distance between the ligand and the receptor and reflects the degree of interaction. Due to the high lipophilicity of most Pgp substrates, there is a high possibility of non-specific interactions between the ligands and liposomes used, which can interfere with the STD NMR spectrum observed. The STD NMR spectrum of the drug in the presence of liposomes was performed and subtracted from the STD ^1H NMR spectrum of the ligand in the presence of proteins reconstituted into liposomes to yield a STDD. […] All NMR experiments were carried out at 25 °C (unless otherwise stated) on a Varian INOVA 600 MHz NMR spectrometer installed with a 1H-detect broadband probe {HX}.
# The control samples were identically prepared with liposomes instead of Pgp reconstituted in liposomes. […] The difference between the on-resonance and the off-resonance created the STD ^1H NMR spectrum. A control experiment consisting of liposomes and drugs was obtained under identical conditions and subtracted from the ^1H STD NMR spectrum of the reconstituted Pgp sample with the drug to generate the STDD ^1H NMR spectrum. […] The STDD amplification factor was calculated using Equation (5) below. (5) STDD Amplication Factor=l/PΔl/Io where Io is the amplitude of the ^1H NMR peaks, l is the ligand concentration, and P is the protein concentration.
# [5] = tested on: human tumor xenograft models; conditions: different human tumor xenograft models, versus TPT; cited from earlier work
# [6] = molecular target: T1, wild-type mouse Pgp (MDR3); conditions: for Decrease of protein fluorescence from the initial fluorescence: ex 295 nm; for Decrease of protein fluorescence: saturating AMPPNP
# [7] = molecular target: T1, wild-type mouse Pgp (MDR3); experiment: biochemical
# [8] = versus TPT; cited from earlier work
# [9] = tested on: LS513 cells; conditions: LS513 cells treated with BCRP and MRP2 inhibitors, versus SN-38; cited from earlier work
# [10] = 800 µM drug, 1 µM Pgp in liposomes, 25 °C
# T1 sequence (P21447 whole entry): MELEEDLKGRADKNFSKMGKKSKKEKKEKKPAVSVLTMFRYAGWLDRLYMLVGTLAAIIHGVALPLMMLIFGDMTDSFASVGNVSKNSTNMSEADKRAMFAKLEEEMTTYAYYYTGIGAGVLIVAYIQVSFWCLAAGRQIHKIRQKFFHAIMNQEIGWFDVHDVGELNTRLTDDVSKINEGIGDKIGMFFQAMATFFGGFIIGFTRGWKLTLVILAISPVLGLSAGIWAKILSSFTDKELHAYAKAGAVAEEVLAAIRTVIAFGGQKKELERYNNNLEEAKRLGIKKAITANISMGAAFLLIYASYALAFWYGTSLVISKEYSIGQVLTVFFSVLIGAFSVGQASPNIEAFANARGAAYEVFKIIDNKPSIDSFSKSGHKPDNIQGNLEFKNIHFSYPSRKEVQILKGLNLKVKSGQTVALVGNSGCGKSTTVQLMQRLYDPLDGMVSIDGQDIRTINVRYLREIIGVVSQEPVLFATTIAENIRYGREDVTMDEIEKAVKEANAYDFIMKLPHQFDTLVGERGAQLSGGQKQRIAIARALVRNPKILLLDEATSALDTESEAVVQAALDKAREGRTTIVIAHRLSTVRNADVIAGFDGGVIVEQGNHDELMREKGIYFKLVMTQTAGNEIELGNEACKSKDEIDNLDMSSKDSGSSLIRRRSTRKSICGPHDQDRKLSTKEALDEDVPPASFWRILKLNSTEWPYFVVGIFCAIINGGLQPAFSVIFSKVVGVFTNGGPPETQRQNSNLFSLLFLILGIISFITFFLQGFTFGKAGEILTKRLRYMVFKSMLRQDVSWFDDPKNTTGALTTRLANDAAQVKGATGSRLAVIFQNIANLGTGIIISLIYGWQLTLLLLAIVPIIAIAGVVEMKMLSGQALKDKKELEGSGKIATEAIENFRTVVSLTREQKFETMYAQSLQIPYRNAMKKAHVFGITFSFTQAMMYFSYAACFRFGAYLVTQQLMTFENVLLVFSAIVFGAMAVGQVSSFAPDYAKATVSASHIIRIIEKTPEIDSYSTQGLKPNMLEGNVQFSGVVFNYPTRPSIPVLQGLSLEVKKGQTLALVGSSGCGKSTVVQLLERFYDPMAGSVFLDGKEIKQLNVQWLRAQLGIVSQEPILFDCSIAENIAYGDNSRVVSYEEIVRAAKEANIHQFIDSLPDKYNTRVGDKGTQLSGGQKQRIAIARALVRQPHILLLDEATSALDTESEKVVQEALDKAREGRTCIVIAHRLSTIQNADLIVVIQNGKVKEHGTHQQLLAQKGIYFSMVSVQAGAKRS
structure (smiles),measurement,setting,value
"Nc1ncnc2c1ncn2[C@@H]1O[C@H](COP(=O)([O-])OP(=O)([O-])NP(=O)([O-])[O-])[C@@H](O)[C@H]1O.[Li+].[Li+].[Li+].[Li+] [AMPPNP, Adenosine 5′-(β,γ-imido)triphosphate lithium salt]",Ksv of acrylamide quenching of Pgp fluorescence,"[1]; Pgp with saturating (3.2 mM) AMPPNP alone, no CPT",0.84 ± 0.07 M⁻¹
"CCc1c2c(nc3ccc(OC(=O)N4CCC(N5CCCCC5)CC4)cc13)-c1cc3c(c(=O)n1C2)COC(=O)[C@]3(O)CC [IRT, Irinotecan]",Survival rate of patients compared with TPT,[2],higher survival rate
same,Decrease in the Ksv value of apoPgp (acrylamide quenching),[1],~ 20%
same,Ksv of acrylamide quenching of Pgp fluorescence,[1],0.83 ± 0.05 and 0.83 ± 0.05 M^−1
same,C-side height of tallest Pgp population in presence of drug,"[3]; 100 µM drug, apo 76 ± 9 Å",70 ± 10 Å
same,Highest STDD amplification factor,[4],~81
same,Efficacy compared with TPT,[5],greater efficacy
same,Change of affinity for Pgp in the presence of AMPPNP,[6],diminished by over threefold
same,Stern–Volmer constant (Ksv) of drug-induced Pgp fluorescence quenching,[6],0.07 ± 0.01 µM⁻¹
"CC(=O)N[C@@H](Cc1c[nH]c2ccccc12)C(N)=O [NATA, N-acetyl-L-tryptophanamide]",Ksv of acrylamide quenching of NATA fluorescence,"[1]; positive control, fully solvent-exposed tryptophan, no Pgp",15.43 ± 0.37 M⁻¹
CCc1c2c(nc3ccc(O)cc13)-c1cc3c(c(=O)n1C2)COC(=O)[C@]3(O)CC [SN-38],Ksv of acrylamide quenching of Pgp fluorescence,"[1]; 30 µM drug, 3.2 mM AMPPNP",0.81 ± 0.08 M⁻¹
same,Ksv of acrylamide quenching of Pgp fluorescence,"[1]; 30 µM drug, absence of AMPPNP, apoPgp 1.58 ± 0.03",1.12 ± 0.02 M⁻¹
same,Decrease in the Ksv value of apoPgp (acrylamide quenching),"[1]; 30 µM drug, no AMPPNP (Figure 4)",~ 28%
same,Probability density difference (∆PD) of tallest population relative to apo,[3]; 30 µM drug,−1.08 × 10^7
same,C-side height of tallest Pgp population in presence of drug,"[3]; 30 µM drug, apo 84 ± 5 Å",78 ± 7 Å
same,Kd,[7]; absence of AMPPNP,3.53 ± 1.14 µM
same,Kd,[7]; saturating (3.2 mM) AMPPNP,13.2 ± 4.23 µM
same,Fold higher cellular retention than TPT,[8],> 2 fold
same,Decrease of protein fluorescence from the initial fluorescence,"[6]; 60 µM drug, absence of AMPPNP",~40.6%
same,Decrease of protein fluorescence,[6]; 60 µM drug,38.8%
same,Stern–Volmer constant (Ksv) of drug-induced Pgp fluorescence quenching,[6]; absence of AMPPNP,0.28 ± 0.09 µM⁻¹
same,Change of affinity for Pgp in the presence of AMPPNP,[6]; presence vs absence of AMPPNP,diminished by over threefold
same,Stern–Volmer constant (Ksv) of drug-induced Pgp fluorescence quenching,[6]; saturating (3.2 mM) AMPPNP,0.076 ± 0.02 µM⁻¹
"CC[C@@]1(O)C(=O)OCc2c1cc1n(c2=O)Cc2cc3c(CN(C)C)c(O)ccc3nc2-1 [TPT, Topotecan]",Ksv of acrylamide quenching of Pgp fluorescence,"[1]; 60 µM drug, 3.2 mM AMPPNP",0.71 ± 0.04 M⁻¹
same,Ksv of acrylamide quenching of Pgp fluorescence,"[1]; 60 µM drug, absence of AMPPNP, apoPgp 1.58 ± 0.03",0.78 ± 0.06 M⁻¹
same,Decrease in the Ksv value of apoPgp (acrylamide quenching),"[1]; 60 µM drug, no AMPPNP (Figure 4)",~50%
same,Probability density difference (∆PD) of tallest population relative to apo,[3]; 60 µM drug,4.11 × 10^7
same,C-side height of tallest Pgp population in presence of drug,"[3]; 60 µM drug, apo 74 ± 9 Å",75 ± 7 Å
same,Kd,[7]; absence of AMPPNP,2.47 ± 0.57 µM
same,Kd,[7]; saturating (3.2 mM) AMPPNP,16 ± 3.27 µM
same,Average STDD amplification factor,[4]; [10],around 45
same,Highest STDD amplification factor,[4]; [10],approximately 133
same,"Relative efflux rate, times higher than SN-38",[9],approximately 4 times
same,Decrease of protein fluorescence from the initial fluorescence,"[6]; 100 µM drug, absence of AMPPNP",approximately 71.6%
same,Decrease of protein fluorescence,[6]; 100 µM drug,61.0%
same,Stern–Volmer constant (Ksv) of drug-induced Pgp fluorescence quenching,[6]; absence of AMPPNP,0.41 ± 0.09 µM⁻¹
same,Change of affinity for Pgp in the presence of AMPPNP,[6]; presence vs absence of AMPPNP,diminished by over threefold
same,Stern–Volmer constant (Ksv) of drug-induced Pgp fluorescence quenching,[6]; saturating (3.2 mM) AMPPNP,0.06 ± 0.01 µM⁻¹
